These results are taken from US10961200B2, “Small molecule inhibitors of lactate dehydrogenase and methods of use thereof” (THE UNITED STATES OF AMERICA, AS REPRESENTED BY THE …, priority 2014, dated 2021).

As a reminder, the IC50 is the point on the concentration scale where inhibition reaches its midpoint.

The structures appear in SMILES notation. Where a name gives a salt, the structure may show the parent alone. Read-outs that look alike come from different tables or passages of the source. Where only a bound is given, the exact number is not on record here.

Assay [1] deals with MiaPaCa2 cells. The assay is described as follows: cell-based HT lactate assay, colorimetric/fluorometric detection (inhibition of lactate production). The settings on record: class symbols, 0 to 3 pluses. As for the experimental part:
Cell-based HT Lactate assay is a miniaturized Biovision Lactate Colorimetric/Fluorometric Assay Kit (Cat #K607-100). The assay is roughly a 3.5 hour assay run in a 1536 plate format. Cell number optimization should be run for each cell line to achieve an optimal number in which lactate production equals roughly 90% of the standard curve range. Cell number per well optimization has been performed with the following cell lines: MiaPaCa2—500 cells/well, SNU398—500 cells/well, and P493—500 cells/well.
The lactate activity in Table 8 is represented by 0 to 3 pluses as follows: +++<1 μM; ++1-10 μM; +10-57 μM; and −>57 μM.

Assay [2] deals with Human LDHA (Homo sapiens (Human), UniProt P00338). The assay is described as follows: human LDHA primary biochemical assay (resazurin/diaphorase coupled, fluorescence). From the text: Test compounds were placed in a Greiner Bio-One (Monroe, N.C.) 1536-well black solid bottom assay plate. 200 millimolar (mM) Tris HCl, pH 7.4, 100 micromolar […] EDTA and 0.01% TWEEN-20™, final concentration, was used as the assay buffer. The LDHA reagent was 2 nanomolar (nM) Human LDHA (Meridian Life Science, Inc., Memphis, Tenn.), final concentration, in assay buffer.
A general note: Resazurin is reduced to fluorescent resorufin, in cell work by metabolically active cells.

Setting [3] is: LDHA inhibitory activity, assay of Example 1, activity level classes.
Where [4] appears, read: read-out: Inhibitory activity IC50.

For `Cn1c(C(=O)O)cnc1-n1cc(Cc2ccc(S(N)(=O)=O)cc2)c(-c2ccccc2)n1` [Compound 212, 1-methyl-2-(3-phenyl-4-(4-sulfamoylbenzyl)-1H-pyrazol-1-yl)-1H-imidazole-5-carboxylic acid], the IC50 in assay [1] (Homo sapiens, MIA PaCa-2) was above 57000 nM; in assay [2] (setting [3]), above 57000 nM.
As to `NS(=O)(=O)c1ccc(Cc2cn(-c3cc(C(=O)O)cs3)nc2-c2ccccc2)cc1` [Compound 213, 5-(3-phenyl-4-(4-sulfamoylbenzyl)-1H-pyrazol-1-yl)thiophene-3-carboxylic acid], the 50% inhibitory concentration (IC50) in assay [1] (Homo sapiens, MIA PaCa-2) is above 57000 nM; in assay [2] (setting [4]) it was 1000 to 57000 nM.
On the same counts, the results for `Cn1cc(-c2cc(-c3nn(-c4nc(C(=O)O)cs4)c(CC4CC4)c3Cc3ccc(S(N)(=O)=O)cc3F)ccc2F)cn1` [Compound 214, 2-(5-(cyclopropylmethyl)-3-(4-fluoro-3-(1-methyl-1H-pyrazol-4-yl)phenyl)-4-(2-fluoro-4-sulfamoylbenzyl)-1H-pyrazol-1-yl)thiazole-4-carboxylic acid] are 1000 to 10000 nM and below 100 nM.
The matching figures for `Cc1noc(C)c1-c1cc(-c2nn(-c3nc(C(=O)O)cs3)c(CC3CC3)c2Cc2ccc(S(N)(=O)=O)cc2F)ccc1F` [Compound 215, 2-(5-(cyclopropylmethyl)-3-(3-(3,5-dimethylisoxazol-4-yl)-4-fluorophenyl)-4-(2-fluoro-4-sulfamoylbenzyl)-1H-pyrazol-1-yl)thiazole-4-carboxylic acid]: 10000 to 57000 nM and below 100 nM.
On the same counts, the results for `Cn1cc(-c2cc(-c3nn(-c4nc(C(=O)O)cs4)c(CC4CC4)c3Cc3ccc(S(N)(=O)=O)c(F)c3)ccc2F)cn1` [Compound 217, 2-(5-(cyclopropylmethyl)-3-(4-fluoro-3-(1-methyl-1H-pyrazol-4-yl)phenyl)-4-(3-fluoro-4-sulfamoylbenzyl)-1H-pyrazol-1-yl)thiazole-4-carboxylic acid] are 1000 to 10000 nM and below 100 nM.
Turning to `Cc1noc(C)c1-c1cc(-c2nn(-c3nc(C(=O)O)cs3)c(CC3CC3)c2Cc2ccc(S(N)(=O)=O)c(F)c2)ccc1F` [Compound 219, 2-(5-(cyclopropylmethyl)-3-(3-(3,5-dimethylisoxazol-4-yl)-4-fluorophenyl)-4-(3-fluoro-4-sulfamoylbenzyl)-1H-pyrazol-1-yl)thiazole-4-carboxylic acid], the IC50 in assay [1] (Homo sapiens, MIA PaCa-2) is 1000 to 10000 nM; in assay [2] (setting [4]), below 100 nM.
Regarding `Cc1csc(-c2cc(-c3nn(-c4nc(C(=O)O)cs4)c(CC4CC4)c3Cc3ccc(S(N)(=O)=O)cc3F)ccc2F)c1` [Compound 221, 2-(5-(cyclopropylmethyl)-3-(4-fluoro-3-(4-methylthiophen-2-yl)phenyl)-4-(2-fluoro-4-sulfamoylbenzyl)-1H-pyrazol-1-yl)thiazole-4-carboxylic acid], the half-maximal inhibitory concentration (IC50) in assay [1] (Homo sapiens, MIA PaCa-2) was below 1000 nM; in assay [2] (setting [4]) it was below 100 nM.
As to `Cc1csc(-c2cc(-c3nn(-c4nc(C(=O)O)cs4)c(CC4CC4)c3Cc3ccc(S(N)(=O)=O)c(F)c3)ccc2F)c1` [Compound 223, 2-(5-(cyclopropylmethyl)-3-(4-fluoro-3-(4-methylthiophen-2-yl)phenyl)-4-(3-fluoro-4-sulfamoylbenzyl)-1H-pyrazol-1-yl)thiazole-4-carboxylic acid], the IC50 in assay [1] (Homo sapiens, MIA PaCa-2) is below 1000 nM; in assay [2] (setting [4]), below 100 nM.
The matching figures for `Cc1ccc(-c2cc(-c3nn(-c4nc(C(=O)O)cs4)c(CC4CC4)c3Cc3ccc(S(N)(=O)=O)c(F)c3)ccc2F)s1` [Compound 227, 2-(5-(cyclopropylmethyl)-3-(4-fluoro-3-(5-methylthiophen-2-yl)phenyl)-4-(3-fluoro-4-sulfamoylbenzyl)-1H-pyrazol-1-yl)thiazole-4-carboxylic acid]: below 1000 nM and below 100 nM.
As for `CCOC(=O)c1csc(-n2nc(-c3ccc(F)c(-c4ccc(C)s4)c3)c(Cc3ccc(S(N)(=O)=O)c(F)c3)c2CC2CC2)n1` [Compound 229, ethyl 2-(5-(cyclopropylmethyl)-3-(4-fluoro-3-(5-methylthiophen-2-yl)phenyl)-4-(3-fluoro-4-sulfamoylbenzyl)-1H-pyrazol-1-yl)thiazole-4-carboxylate], the IC50 in assay [1] (Homo sapiens, MIA PaCa-2) is above 57000 nM; in assay [2] (setting [4]), above 57000 nM.
On to `Cc1ccc(-c2cc(-c3nn(-c4nc(C(=O)O)cs4)c(CC4CC4)c3Cc3ccc(S(N)(=O)=O)c(F)c3)ccc2F)o1` [Compound 230, 2-(5-(cyclopropylmethyl)-3-(4-fluoro-3-(5-methylfuran-2-yl)phenyl)-4-(3-fluoro-4-sulfamoylbenzyl)-1H-pyrazol-1-yl)thiazole-4-carboxylic acid], for which the concentration for half-maximal inhibition (IC50) in assay [1] (Homo sapiens, MIA PaCa-2) is below 1000 nM; in assay [2] (setting [4]) it was below 100 nM.
On the same counts, the results for `Cc1cnc(-c2cc(-c3nn(-c4nc(C(=O)O)cs4)c(CC4CC4)c3Cc3ccc(S(N)(=O)=O)c(F)c3)ccc2F)s1` [Compound 231, 2-(5-(cyclopropylmethyl)-3-(4-fluoro-3-(5-methylthiazol-2-yl)phenyl)-4-(3-fluoro-4-sulfamoylbenzyl)-1H-pyrazol-1-yl)thiazole-4-carboxylic acid, TFA] are below 1000 nM and below 100 nM.
On the same counts, the results for `Cc1ncc(-c2cc(-c3nn(-c4nc(C(=O)O)cs4)c(CC4CC4)c3Cc3ccc(S(N)(=O)=O)c(F)c3)ccc2F)s1` [Compound 232, 2-(5-(cyclopropylmethyl)-3-(4-fluoro-3-(2-methylthiazol-5-yl)phenyl)-4-(3-fluoro-4-sulfamoylbenzyl)-1H-pyrazol-1-yl)thiazole-4-carboxylic acid] are below 1000 nM and below 100 nM.
As to `Cc1ccc(-c2cc(-c3nn(-c4nc(C(=O)O)cs4)c(CC4CC4)c3Cc3ccc(S(N)(=O)=O)cc3F)ccc2F)s1` [Compound 233, 2-(5-(cyclopropylmethyl)-3-(4-fluoro-3-(5-methylthiophen-2-yl)phenyl)-4-(2-fluoro-4-sulfamoylbenzyl)-1H-pyrazol-1-yl)thiazole-4-carboxylic acid], the IC50 in assay [1] (Homo sapiens, MIA PaCa-2) was below 1000 nM; in assay [2] (setting [4]), below 100 nM.
For `NS(=O)(=O)c1ccc(Cc2c(-c3ccc(F)c(-c4cccs4)c3)nn(-c3nc(C(=O)O)cs3)c2CC2CC2)cc1F` [Compound 234, 2-(5-(cyclopropylmethyl)-3-(4-fluoro-3-(thiophen-2-yl)phenyl)-4-(3-fluoro-4-sulfamoylbenzyl)-1H-pyrazol-1-yl)thiazole-4-carboxylic acid, TFA], the concentration for half-maximal inhibition (IC50) in assay [1] (Homo sapiens, MIA PaCa-2) was below 1000 nM; in assay [2] (setting [4]) it was below 100 nM.
In the case of `COc1cccc(-c2cc(-c3nn(-c4nc(C(=O)O)cs4)c(CC4CC4)c3Cc3ccc(S(N)(=O)=O)cc3)ccc2F)c1` [Compound 237], the IC50 is 1000 to 10000 nM in assay [1] and below 100 nM in assay [2] (setting [3]).
As to `NS(=O)(=O)c1ccc(Cc2c(-c3ccc(F)c(-c4cccc(F)c4)c3)nn(-c3nc(C(=O)O)cs3)c2CC2CC2)cc1` [Compound 239], the IC50 in assay [1] is below 1000 nM; in assay [2] (setting [3]), below 100 nM.
Consider `NS(=O)(=O)c1ccc(Cc2c(-c3ccc(F)c(-c4cccc(F)c4)c3)nn(-c3nc(C(=O)O)cs3)c2C2CC2)cc1F` [Compound 251], for which the concentration for half-maximal inhibition (IC50) in assay [1] is 1000 to 10000 nM; in assay [2] (setting [3]), below 100 nM.
As to `COc1cccc(-c2cc(-c3nn(-c4nc(C(=O)O)cs4)c(C4CC4)c3Cc3ccc(S(N)(=O)=O)c(F)c3)ccc2F)c1` [Compound 252], the 50% inhibitory concentration (IC50) in assay [1] is 1000 to 10000 nM; in assay [2] (setting [3]), below 100 nM.
With `NS(=O)(=O)c1ccc(Cc2c(-c3ccc(F)c(-c4ccccc4)c3)nn(-c3nc(C(=O)O)cs3)c2CC2CC2)cc1` [Compound 257], the figures for the half-maximal inhibitory concentration (IC50) in assay [1] and in assay [2] (setting [3]) were below 1000 nM and below 100 nM, respectively.
`NS(=O)(=O)c1ccc(Cc2c(-c3ccc(F)c(C#CC4CCCC4)c3)nn(-c3nc(C(=O)O)cs3)c2CC2CC2)cc1F` [Compound 258]: the IC50 in assay [1] was below 1000 nM; in assay [2] (setting [3]), below 100 nM.
The matching figures for `CN1CC=C(c2cc(-c3nn(-c4nc(C(=O)O)cs4)c(CC4CC4)c3Cc3ccc(S(N)(=O)=O)c(F)c3)ccc2F)CC1` [Compound 259]: 10000 to 57000 nM and below 100 nM.
On the same counts, the results for `NS(=O)(=O)c1ccc(Cc2c(-c3ccc(F)c(C#CC4CCNCC4)c3)nn(-c3nc(C(=O)O)cs3)c2CC2CC2)cc1F` [Compound 261] are 1000 to 10000 nM and below 100 nM.
On the same counts, the results for `NS(=O)(=O)c1ccc(Cc2c(-c3ccc(F)c(C#CCN4CCOCC4)c3)nn(-c3nc(C(=O)O)cs3)c2CC2CC2)cc1F` [Compound 263] are 10000 to 57000 nM and below 100 nM.
On to `C=C(C)C#Cc1cc(-c2nn(-c3nc(C(=O)O)cs3)c(CC3CC3)c2Cc2ccc(S(N)(=O)=O)c(F)c2)ccc1F` [Compound 264], for which the values for the IC50 in assay [1] and in assay [2] (setting [3]) were below 1000 nM and below 100 nM, respectively.
The matching figures for `CC(C)(O)C#Cc1cc(-c2nn(-c3nc(C(=O)O)cs3)c(CC3CC3)c2Cc2ccc(S(N)(=O)=O)c(F)c2)ccc1F` [Compound 265]: 1000 to 10000 nM and below 100 nM.
For `CCOC(=O)c1csc(-n2nc(-c3cccc(-c4ccc(C)cc4)c3)c(Cc3ccc(S(N)(=O)=O)c(F)c3)c2CC2CC2)n1` [Compound 266], the figures for the concentration for half-maximal inhibition (IC50) in assay [1] and in assay [2] (setting [3]) were above 57000 nM and 1000 to 57000 nM, respectively.
On to `NS(=O)(=O)c1ccc(Cc2c(-c3cccc(N4CCOCC4)c3)nn(-c3ncc(C(=O)O)s3)c2CC2CC2)cc1F` [Compound 267], for which the half-inhibitory concentration (IC50) was 10000 to 57000 nM in assay [1] and below 100 nM in assay [2] (setting [3]).
On the same counts, the results for `CCOC(=O)c1csc(-n2nc(-c3ccc(F)c(C#CC4CCCC4)c3)c(Cc3ccc(S(N)(=O)=O)c(F)c3)c2CC2CC2)n1` [Compound 268] are above 57000 nM and above 57000 nM.
